The values below are quoted from earlier work in patent publication US20130115640A1, “ACTH for Treatment of Kidney Disease” (priority 2011, published 2013).

This series has as its system TGF-β. The following applies: Losartan 50 mg, 4 weeks, type II diabetes and microalbuminuria.

Consider `CCCCc1nc(Cl)c(CO)n1Cc1ccc(-c2ccccc2-c2nn[nH]n2)cc1` [Losartan], for which the “plasma TGF-β levels” value was “not altered” and the “urinary TGF-β levels” value is “significantly reduced”.
